Marks after values point to notes of the source that are not given here.
Key:
[1] = system: human non-small-cell lung cancer cell line A549; experiment: MTT cell growth inhibition, A549; format: cell-based; conditions: Homo sapiens; A549, MTT assay, 72 h; read-out: IC50, growth of tumor cell line
Source text: (§3) Experimental method: Cell lines (human non-small-cell lung cancer cell line A549, human colon cancer cell line LOVO, human nasopharyngeal carcinoma cell line CNE-2, human liver cancer cell line HepG2, human cervical carcinoma cell line Hela, human breast cancer cell lines MCF-7 and MDA-MB-231, human gastric carcinoma cell line NCI-N87, human prostatic cancer cell lines PC-3 and DU145, human leukemia cell line K562, human melanoma cell line A375, human neuroblastoma cell line SH-SY5H, human promyelocytic leukemia cell line HL-60, 5-FU-resistant human hepatocellular carcinoma cell line BEL-7402/5-Fu, doxorubicin-resistant hepatocellular carcinoma cell line HepG2/ADM, doxorubicin-resistant human breast cancer cell lines MCF-7/ADR) at logarithmic phase were resuspended in RPMI 1640 medium (containing 10% fetal bovine serum, 100 U/mL penicillin-streptomycin). Then, 100 μL of cells (cell concentration was 5×10^5/mL) were seeded into 96 wells plate. After 24 h incubation at 37° C. with 5% CO2, tested compounds were added (the control group without compound) for an additional 72 h incubation. After that, 30 μL of MTT [3-(4,5-Dimethylthiazol-2-yl)-2,5-diphenyltetrazolium bromide] solution (5 mg/mL) was added into each well and incubated for another 4 h at 37° C. and then the formazan crystals were solubilized with 100 μL DMSO. Finally, absorbance of each well was determined at 570 nm by a microplate reader (Thermo).
(§4) The concentration required to inhibit cell growth by 50% (IC50) was calculated from survival curves.

[2] = system: human colon cancer cell line LOVO; experiment: MTT cell growth inhibition, LOVO; format: cell-based; conditions: Homo sapiens; LOVO (FAPα positive), MTT assay, 72 h; read-out: IC50, growth of tumor cell line
Source text: as §3, §4

[3] = system: human nasopharyngeal carcinoma cell line CNE-2; experiment: MTT cell growth inhibition, CNE-2; format: cell-based; conditions: Homo sapiens; CNE-2, MTT assay, 72 h; read-out: IC50, growth of tumor cell line
Source text: as §3, §4

[4] = system: human liver cancer cell line HepG2; experiment: MTT cell growth inhibition, HepG2; format: cell-based; conditions: Homo sapiens; HepG2, MTT assay, 72 h; read-out: IC50, growth of tumor cell line
[5] = system: human cervical carcinoma cell line Hela; experiment: MTT cell growth inhibition, Hela; format: cell-based; conditions: Homo sapiens, MTT assay, 72 h, read-out: IC50, growth of tumor cell line
Source text: as §3, §4

[6] = system: human breast cancer cell line MCF-7; experiment: MTT cell growth inhibition, MCF-7; format: cell-based; conditions: Homo sapiens, MCF7; MCF-7, MTT assay, 72 h; read-out: IC50, growth of tumor cell line
Source text: as §3, §4

[7] = system: human breast cancer cell line MDA-MB-231; experiment: MTT cell growth inhibition, MDA-MB-231; format: cell-based; conditions: Homo sapiens; MDA-MB-231, MTT assay, 72 h; read-out: IC50, growth of tumor cell line
Source text: as §3, §4

[8] = system: human gastric carcinoma cell line NCI-N87; experiment: MTT cell growth inhibition, NCI-N87; format: cell-based; conditions: Homo sapiens; NCI-N87, MTT assay, 72 h; read-out: IC50, growth of tumor cell line
[9] = system: human prostatic cancer cell line PC-3; experiment: MTT cell growth inhibition, PC-3; format: cell-based; conditions: Homo sapiens; PC-3, MTT assay, 72 h; read-out: IC50, growth of tumor cell line
Source text: as §3, §4

[10] = system: human prostatic cancer cell line DU145; experiment: MTT cell growth inhibition, DU-145; format: cell-based; conditions: Homo sapiens; DU-145, MTT assay, 72 h; read-out: IC50, growth of tumor cell line
Source text: as §3, §4

[11] = system: human leukemia cell line K562; experiment: MTT cell growth inhibition, K562; format: cell-based; conditions: Homo sapiens; K562, MTT assay, 72 h; read-out: IC50, growth of tumor cell line
Source text: as §3, §4

[12] = system: human melanoma cell line A375; experiment: MTT cell growth inhibition, A375; format: cell-based; conditions: Homo sapiens, A-375; A375, MTT assay, 72 h; read-out: IC50, growth of tumor cell line
[13] = system: human neuroblastoma cell line SH-SY5H; experiment: MTT cell growth inhibition, SH-SY5H; format: cell-based; conditions: Homo sapiens, Neuroblastoma cell, MTT assay, 72 h, read-out: IC50, growth of tumor cell line
Source text: as §3, §4

[14] = system: human promyelocytic leukemia cell line HL-60; experiment: MTT cell growth inhibition, HL-60; format: cell-based; conditions: Homo sapiens; HL-60, MTT assay, 72 h; read-out: IC50, growth of tumor cell line
Source text: as §3, §4

[15] = system: 5-FU-resistant human hepatocellular carcinoma cell line BEL-7402/5-Fu; experiment: MTT cell growth inhibition, BEL-7402/5-Fu; format: cell-based; conditions: Homo sapiens, Bel7402/5-FU, MTT assay, 72 h, read-out: IC50, growth of tumor cell line
Source text: as §3, §4

[16] = system: doxorubicin-resistant hepatocellular carcinoma cell line HepG2/ADM; experiment: MTT cell growth inhibition, HepG2/ADM; format: cell-based, human; conditions: Homo sapiens, MTT assay, 72 h, read-out: IC50, growth of tumor cell line
Source text: as §3, §4

[17] = system: MDA-MB-231 xenografts; experiment: MDA-MB-231 xenografts in nude mice; format: in vivo, BALB/nu/nu mice; conditions: MDA-MB-231 xenograft nude mice; for Anti-tumor rate (%) / Body weight (g) Post-dose / Tumor weight: 1 mg/kg i.p. every two days, 8 administrations; for Body weight (g) Pre-dose: before dosing
Method: (§1) Experimental method: The MDA-MB-231 cells at logarithmic phase were digested and washed twice with PBS. Then, 100 μL cells (1×10^7) were inoculated subcutaneously on the backs of female BALB/nu/nu mice. After tumors grew to 70˜100 mm^3, the mice were divided randomly into saline group (control group), vinca alkaloids groups (VLB, CCRB, CCFN, CCXJ) and vinca alkaloid derivatives groups (JJ-CCJ, BX-CCJ, JJ-CCRB, BX-CCRB, JJ-CCFN, BX-CCFN, JJ-CCXJ and BX-CCXJ), with six mice per group. 1 mg/kg drugs were injected intraperitoneally every two days, meanwhile body weight and tumor sizes were measured. Experiment was ended after 8 times of drug administration, then tumor and organs were stripped. Tumor volumes were measured using the following formula: V=½(ab^2), whereas a refers to the longest diameter and b is the shortest diameter.

[18] = system: HepG2 xenografts; experiment: HepG2 xenografts in nude mice; format: in vivo; conditions: HepG2 xenograft nude mice; for Anti-tumor rate (%) / Body weight (g) Post-dose / Tumor weight: 1 mg/kg; for Body weight (g) Pre-dose: before dosing
Method: as §1
(§2) Tumor xenograft models of HepG2, LOVO, K562 and HL-60 cell lines were performed as the method described above.

[19] = system: LOVO xenografts; experiment: LOVO xenografts in nude mice; format: in vivo; conditions: LOVO xenograft nude mice; for Anti-tumor rate (%) / Body weight (g) Post-dose / Tumor weight: 1 mg/kg; for Body weight (g) Pre-dose: before dosing
Method: as §1, §2

[20] = system: K562 xenografts; experiment: K562 xenografts in nude mice; format: in vivo; conditions: K562 xenograft nude mice; for Anti-tumor rate (%) / Body weight (g) Post-dose / Tumor weight: 1 mg/kg; for Body weight (g) Pre-dose: before dosing
Method: as §1, §2

[21] = system: HL-60 xenografts; experiment: HL-60 xenografts in nude mice; format: in vivo; conditions: HL-60 xenograft nude mice; for Anti-tumor rate (%) / Body weight (g) Post-dose / Tumor weight: 1 mg/kg; for Body weight (g) Pre-dose: before dosing
Method: as §1, §2

[22] = MTT cytotoxicity on normal cells, LO2; conditions: human, LO2 cells (human normal liver cells)
Method: (§5) Then, 100 μL of cells (cell concentration was 5×10^5/mL) were seeded into 96 wells plate. After 24 h incubation at 37° C. with 5% CO2, tested compounds were added (the control group without compound) for an additional 72 h incubation. After that, 30 μL of MTT [3-(4,5-Dimethylthiazol-2-yl)-2,5-diphenyltetrazolium bromide] solution (5 mg/mL) was added into each well and incubated for another 4 h at 37° C. and then the formazan crystals were solubilized with 100 μL DMSO. Finally, absorbance of each well was determined at 570 nm by a microplate reader (Thermo).
(§6) The standard curve was drew with compound concentrations as the abscissa and cell growth inhibition rates as the ordinate. The concentration required to inhibit cell growth by 50% (IC50) was calculated from survival curves.
(§7) Experimental method: In vitro cytotoxicities of vinca alkaloids, hydrazinolyzed vinca alkaloids and vinca alkaloid dipeptide derivatives on human normal liver cells LO2 and human umbilical vein endothelial cells HUVEC were detected according to the method of Example 2.

[23] = MTT cytotoxicity on normal cells, HUVEC; conditions: human, HUVEC (human umbilical vein endothelial cells)
Method: as §5, §6, §7

[24] = system: doxorubicin-resistant human breast cancer cell lines MCF-7/ADR; experiment: MTT cell growth inhibition, MCF-7/ADR; format: cell-based; conditions: Homo sapiens, NCI/ADR-RES, MTT assay, 72 h, read-out: IC50, growth of tumor cell line
Source text: as §3, §4

## CC[C@]1(O)C[C@@H]2CN(CCc3c([nH]c4ccccc34)[C@@](C(=O)OC)(c3cc4c(cc3OC)N(C)[C@H]3[C@@](O)(C(=O)NN)[C@H](O)[C@]5(CC)C=CCN6CC[C@]43[C@@H]65)C2)C1 [JJ-CCJ, hydrazinolyzed vinblastine]
[1]
  IC50: 6.43 ± 2.42 nM
[2]
  IC50: 32.9 ± 6.39 nM
[3]
  IC50: 7.14 ± 0.16 nM
[4]
  IC50: 12.4 ± 0.72 nM
[5]
  IC50: 14.5 ± 1.81 nM
[6]
  IC50: 23.9 ± 3.07 nM
[7]
  IC50: 5.99 ± 3.29 nM
[8]
  IC50: 17.4 ± 2.2 nM
[9]
  IC50: 6.27 ± 0.61 nM
[10]
  IC50: 5.33 ± 0.6 nM
[11]
  IC50: 3.67 ± 0.79 nM
[12]
  IC50: 4.56 ± 0.57 nM
[13]
  IC50: 6.24 ± 1.31 nM
[14]
  IC50: 8.65 ± 1.28 nM
[15]
  IC50: 80.3 ± 7.53 nM
[16]
  IC50: 43.9 ± 3.77 nM
[17]
  Anti-tumor rate (%): 87.74** %
  Body weight (g) Post-dose: 16.4 ± 1.7 g
  Tumor weight: 0.32 ± 0.03 g
  Body weight (g) Pre-dose: 20.3 ± 0.7 g
[18]
  Anti-tumor rate (%): 77.65** %
  Body weight (g) Post-dose: 16.1 ± 0.3 g
  Tumor weight: 0.57 ± 0.7 g
  Body weight (g) Pre-dose: 21.7 ± 1.2 g
[19]
  Anti-tumor rate (%): 77.71** %
  Body weight (g) Post-dose: 17.3 ± 1.2 g
  Tumor weight: 0.64 ± 0.21 g
  Body weight (g) Pre-dose: 22.8 ± 1.7 g
[20]
  Anti-tumor rate (%): 68.45** %
  Body weight (g) Post-dose: 16.5 ± 0.8 g
  Tumor weight: 0.53 ± 0.19 g
  Body weight (g) Pre-dose: 22.1 ± 1.9 g
[21]
  Anti-tumor rate (%): 69.23** %
  Body weight (g) Post-dose: 16.1 ± 0.4 g
  Tumor weight: 0.64 ± 0.17 g
  Body weight (g) Pre-dose: 20.1 ± 1.7 g
[22]
  IC50 at 72 h: 20.1 ± 0.97 nM
[23]
  IC50 at 72 h: 36.1 ± 1 nM

## CC[C@]1(O)C[C@@H]2CN(CCc3c([nH]c4ccccc34)[C@@](C(=O)OC)(c3cc4c(cc3OC)N[C@H]3[C@@](O)(C(=O)NN)[C@H](O)[C@]5(CC)C=CCN6CC[C@]43[C@@H]65)C2)C1 [JJ-CCXJ, hydrazinolyzed vincristine]
[1]
  IC50: 4.34 ± 0.42 nM
[2]
  IC50: 24.3 ± 1.09 nM
[3]
  IC50: 8.37 ± 2.7 nM
[4]
  IC50: 12.3 ± 1.96 nM
[5]
  IC50: 23.6 ± 2.97 nM
[6]
  IC50: 26.9 ± 4.38 nM
[7]
  IC50: 7.37 ± 1.18 nM
[8]
  IC50: 10.7 ± 1.78 nM
[9]
  IC50: 27.1 ± 2.18 nM
[10]
  IC50: 18.4 ± 3.67 nM
[11]
  IC50: 12.1 ± 1.67 nM
[12]
  IC50: 15.6 ± 2.38 nM
[13]
  IC50: 18.7 ± 2.54 nM
[14]
  IC50: 32.5 ± 3.51 nM
[15]
  IC50: 106 ± 5.87 nM
[16]
  IC50: 44.9 ± 3.67 nM
[24]
  IC50: 63.2 ± 7.74 nM
[17]
  Anti-tumor rate (%): 75.86** %
  Body weight (g) Post-dose: 17.3 ± 1.2 g
  Tumor weight: 0.63 ± 0.15 g
  Body weight (g) Pre-dose: 21.1 ± 2.5 g
[18]
  Anti-tumor rate (%): 79.21** %
  Body weight (g) Post-dose: 17.8 ± 0.9 g
  Tumor weight: 0.53 ± 0.12 g
  Body weight (g) Pre-dose: 22.0 ± 2.1 g
[19]
  Anti-tumor rate (%): 73.52** %
  Body weight (g) Post-dose: 17.5 ± 1.3 g
  Tumor weight: 0.76 ± 0.16 g
  Body weight (g) Pre-dose: 22.9 ± 2.3 g
[20]
  Anti-tumor rate (%): 60.12** %
  Body weight (g) Post-dose: 17.1 ± 0.3 g
  Tumor weight: 0.67 ± 0.22 g
  Body weight (g) Pre-dose: 22.4 ± 1.7 g
[21]
  Anti-tumor rate (%): 59.62** %
  Body weight (g) Post-dose: 16.3 ± 0.6 g
  Tumor weight: 0.84 ± 0.13 g
  Body weight (g) Pre-dose: 19.7 ± 1.5 g

## CC[C@]1(O)C[C@H]2CN(CCc3c([nH]c4ccccc34)[C@@](C(=O)OC)(c3cc4c(cc3OC)N(C=O)[C@H]3[C@@](O)(C(=O)OC)[C@H](OC(C)=O)[C@]5(CC)C=CCN6CC[C@]43[C@@H]65)C2)C1 [Vincristine, reference compound]
[1]
  IC50: 1.32 ± 0.03 nM
[2]
  IC50: 0.74 ± 0.09 nM
[3]
  IC50: 1.51 ± 0.76 nM
[4]
  IC50: 0.97 ± 0.12 nM
[5]
  IC50: 2.33 ± 0.77 nM
[6]
  IC50: 2.74 ± 0.36 nM
[7]
  IC50: 1.03 ± 0.22 nM
[8]
  IC50: 0.87 ± 0.26 nM
[9]
  IC50: 2.93 ± 0.37 nM
[10]
  IC50: 1.17 ± 0.31 nM
[11]
  IC50: 1.07 ± 0.33 nM
[12]
  IC50: 0.95 ± 0.16 nM
[13]
  IC50: 1.34 ± 0.21 nM
[14]
  IC50: 1.81 ± 0.17 nM
[15]
  IC50: 22.7 ± 3.37 nM
[16]
  IC50: 7.78 ± 2.01 nM
[24]
  IC50: 9.67 ± 2.2 nM
[22]
  IC50 at 72 h: 0.21 ± 0.05 nM
[23]
  IC50 at 72 h: 0.42 ± 0.09 nM

## CCC1=C[C@@H]2CN(C1)Cc1c([nH]c3ccccc13)[C@@](C(=O)OC)(c1cc3c(cc1OC)N(C)[C@H]1[C@@](O)(C(=O)OC)[C@H](OC(C)=O)[C@]4(CC)C=CCN5CC[C@]31[C@@H]54)C2 [Vinorelbine, reference compound]
[1]
  IC50: 14.5 ± 1.07 nM
[2]
  IC50: 7.86 ± 0.16 nM
[3]
  IC50: 9.03 ± 0.35 nM
[4]
  IC50: 8.34 ± 0.53 nM
[5]
  IC50: 11.4 ± 1.04 nM
[6]
  IC50: 49.5 ± 2.01 nM
[7]
  IC50: 39.7 ± 5.79 nM
[8]
  IC50: 35.8 ± 6.57 nM
[9]
  IC50: 23.7 ± 4.31 nM
[10]
  IC50: 19.9 ± 0.57 nM
[11]
  IC50: 12.2 ± 0.54 nM
[12]
  IC50: 5.64 ± 0.95 nM
[13]
  IC50: 4.78 ± 0.84 nM
[14]
  IC50: 8.68 ± 1.35 nM
[15]
  IC50: 36.1 ± 4.78 nM
[16]
  IC50: 24.4 ± 3.82 nM
[22]
  IC50 at 72 h: 0.97 ± 0.08 nM
[23]
  IC50 at 72 h: 1.13 ± 0.56 nM
